The record followed here is patent publication US11345711B2, “8,9-dihydroimidazo[1,2-a]pyrimido[5,4-e]pyrimidin-5(6H)-ones” (IMPACT THERAPEUTICS (SHANGHAI), INC, priority 2016, dated 2022).

Experiment [1] concerns NCI-H1299 cells. The experiment is described as follows: MTT based cell viability assay on NCI-H1299 cells. As to conditions: Homo sapiens, NCI-H1299 cells, read-out: IC50, growth inhibition of NCI-H1299 cells. As for the experimental part:
Determination of the cell growth inhibiting activity of 6-(2-chlorophenyl)-2-((4-(4-methylpiperazin-1-yl)phenyl)amino)-8,9-dihydroimidazo[1,2-a]pyrimido[5,4-e]pyrimidin-5(6H)-one and analogs on NCI-H1299 cells using a MTT based cell viability assay
(§1) The thawed NCI-H1299 cells were cultured and passaged to the third generation, and the growth state was good and the confluence was about 90%, which began to be used in the experiment. The NCI-H1299 cells were digested with trypsin, centrifuged at 800 rpm for 5 min, the supernatant was discarded, resuspended with fresh culture group, and counted. 1000 Cells are seeded to each well of a 96-well plate. The cells are incubated at 37° C. in a 5% CO2 cell culture incubator overnight. The tested sample (including the tested compound and the reference compound AZD1775) was diluted continuously to 8 concentrations (the last concentration was negative control of DMSO) with a 1:3 and 1:10 dilution in DMSO respectively: 10 μM, 3.3 μM, 1 μM, 0.33 μM, 0.1 μM, 0.033 μM, 0.01 μM, 0 μM (the final concentration of DMSO was 1‰). 5 μL of each concentration was added to 120 μL of culture medium (25 times diluted), and the mixture was shaken well. The overnight cells were taken and the culture medium was removed, 195 μL of fresh culture medium was added to each well, and 5 μL of diluted culture medium containing the corresponding concentration of the tested sample was added respectively, and the culture plate was then placed in the 5% CO2 cell culture incubator at 37° C. for 3 d. After removing the original solution and adding 100 μL of fresh serum-free DMEM culture medium containing MTT (0.5 mg/mL) per well, the culture was continued. The original solution was removed after 4 hrs and 100 μl DMSO was added to each well. The 96-well cell culture plates were shaken away from light for 10 min and readed in a multifunctional reader at 552/630/690 nm to give absorption values (OD values). The data were analyzed using a commercial graphic software (Graph Pad Prism 5.0) and the inhibitory activity of the compound on cell proliferation was plotted in terms of cell survival and compound concentration. The IC50 values were fitted by the S-shaped dose-response curve equation as follows: Y=100/(1+10^(Log C−Log IC50)), where C was the concentration of testing compounds.

The test system of experiment [2] is LoVo cells. Nature of the experiment: MTT based cell viability assay on LoVo cells. The conditions noted are these: Homo sapiens, LoVo, 72 h, 3 d, read-out: IC50, growth inhibition of LoVo cells. The protocol: Determination of the cell growth inhibiting activity of 6-(2-chlorophenyl)-2-((4-(4-methylpiperazin-1-yl)phenyl)amino)-8,9-dihydroimidazo[1,2-a]pyrimido[5,4-e]pyrimidin-5(6H)-one and analogs on LoVo cells using a MTT based cell viability assay
as §1, with “LoVo” for “NCI-H1299”, “medium,” for “group,”, “6000” for “1000”, “1%).” for “1‰).”, “C-Log” for “C−Log”

Experiment [3] has as its target Wee1 (h) (Homo sapiens, UniProt P30291). The experiment is described as follows: Wee1 kinase (h) detection method, [γ-33P]-ATP filter assay. Format: biochemical. As for the experimental part:
Determination of the inhibitory effect of 6-(2-chlorophenyl)-2-((4-(4-methylpiperazin-1-yl)phenyl)amino)-8,9-dihydroimidazo[1,2-a]pyrimido[5,4-e]pyrimidin-5(6H)-one and Analogs on the Enzyme Activity of Wee1 Kinase by Using the Wee1 Kinase (h) Detection Method
Then the stock solution of all compounds under test with 50× concentration in 100% DMSO was added to make the final concentration of 10/1/0.1/0.01 μM, and then mixed the mixture well. The reaction is initiated by the addition of the Mg/ATP mix. After incubation for 40 minutes at room temperature, the reaction is stopped by the addition of phosphoric acid to a concentration of 0.5%. […] Each compound sample is duplicated in duplicate. The negative control was lack of all the components of Wee1 enzyme, and the positive was addition of 30% phosphoric acid to terminate the reaction. The Wee1 inhibitor AZD1775 was detected at 10 μM at the same experiment condition.

Each structure is given as a SMILES string.

Sequence of Wee1 (h) (P30291 whole entry): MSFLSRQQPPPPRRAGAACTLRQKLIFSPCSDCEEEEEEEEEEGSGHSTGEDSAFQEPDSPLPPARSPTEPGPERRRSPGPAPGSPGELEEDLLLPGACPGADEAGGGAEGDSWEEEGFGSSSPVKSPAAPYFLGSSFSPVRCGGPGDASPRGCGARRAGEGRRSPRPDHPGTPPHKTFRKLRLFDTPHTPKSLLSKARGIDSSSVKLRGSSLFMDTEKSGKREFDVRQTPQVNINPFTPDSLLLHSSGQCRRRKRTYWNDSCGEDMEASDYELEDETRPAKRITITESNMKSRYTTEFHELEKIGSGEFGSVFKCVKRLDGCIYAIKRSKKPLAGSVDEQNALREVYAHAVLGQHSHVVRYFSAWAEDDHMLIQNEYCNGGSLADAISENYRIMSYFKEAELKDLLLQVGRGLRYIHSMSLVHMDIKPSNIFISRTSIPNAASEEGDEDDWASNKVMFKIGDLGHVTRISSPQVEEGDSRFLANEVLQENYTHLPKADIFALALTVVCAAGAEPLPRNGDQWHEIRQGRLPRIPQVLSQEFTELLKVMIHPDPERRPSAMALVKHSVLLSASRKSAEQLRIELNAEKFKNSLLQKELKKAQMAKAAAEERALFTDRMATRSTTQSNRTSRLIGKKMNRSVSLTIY

In the case of `CN1Cc2cc(Nc3ncc4c(n3)N3CCN=C3N(c3c(F)cccc3Cl)C4=O)ccc2C2(CC2)C1` [Example 10, 6-(2-Chloro-6-fluorophenyl)-2-((2′-methyl-2′,3′-dihydro-1′H-spiro[cyclopropane-1,4′-isoquinolin]-7′-yl)amino)-8,9-dihydroimidazo[1,2-a]pyrimido[5,4-e]pyrimidin-5(6H)-one], the results for the IC50 in experiment [1] and in experiment [2] were 172 nM and 88.7 nM, respectively. The “Inh. (%) of Wee1 kinase enzyme activity” value was 46% in experiment [3] (C 0.01 μm compound), 93% in experiment [3] (C 0.1 μm compound) and 98% in experiment [3] (C 1 μm compound).
In the case of `CC(=O)N1Cc2cc(Nc3ncc4c(n3)N3CCN=C3N(c3c(F)cccc3Cl)C4=O)ccc2C2(CC2)C1` [Example 11, 6-(2-Chloro-6-fluorophenyl)-2-((2′-acetyl-2′,3′-dihydro-1′H-spiro[cyclopropane-1,4′-isoquinolin]-7′-yl)amino)-8,9-dihydroimidazo[1,2-a]pyrimido[5,4-e]pyrimidin-5(6H)-one], the half-maximal inhibitory concentration (IC50) was 705 nM in experiment [1] and 101 nM in experiment [2]. For the same compound, the “Inh. (%) of Wee1 kinase enzyme activity” value in experiment [3] (C 0.01 μm compound) is 23%; in experiment [3] (C 0.1 μm compound) it was 85%; in experiment [3] (C 1 μm compound) it was 97%.
For `CN1CCc2ccc(Nc3ncc4c(n3)N3CCN=C3N(c3c(Cl)cccc3Cl)C4=O)cc2C1` [Example 12, 6-(2,6-Dichlorophenyl)-2-((2-methyl-1,2,3,4-tetrahydroisoquinolin-7-yl)amino)-8,9-dihydroimidazo[1,2-a]pyrimido[5,4-e]pyrimidin-5(6H)-one], in that order: 232 nM, 219 nM, 32%, 83% and 98%.
For `CN1Cc2cc(Nc3ncc4c(n3)N3CCN=C3N(c3c(Cl)cccc3Cl)C4=O)ccc2C(C)(C)C1` [Example 13, 6-(2,6-Dichlorophenyl)-2-((2,4,4-trimethyl-1,2,3,4-tetrahydroisoquinolin-7-yl)amino)-8,9-dihydroimidazo[1,2-a]pyrimido[5,4-e]pyrimidin-5(6H)-one], in that order: 101 nM, 76.7 nM, 29%, 87% and 100%.
Consider `CN1Cc2cc(Nc3ncc4c(n3)N3CCN=C3N(c3c(Cl)cccc3Cl)C4=O)ccc2C2(CC2)C1` [Example 14, 6-(2,6-Dichlorophenyl)-2-((2′-methyl-2′,3′-dihydro-1′H-spiro[cyclopropane-1,4′-isoquinolin]-7′-yl)amino)-8,9-dihydroimidazo[1,2-a]pyrimido[5,4-e]pyrimidin-5(6H)-one], for which the 50% inhibitory concentration (IC50) in experiment [1] stood at 98.7 nM; in experiment [2], 149 nM. The “Inh. (%) of Wee1 kinase enzyme activity” value is listed as 12% in experiment [3] (C 0.01 μm compound), 86% in experiment [3] (C 0.1 μm compound) and 92% in experiment [3] (C 1 μm compound).
As for `Cc1cccc(C)c1N1C(=O)c2cnc(Nc3ccc4c(c3)CN(C)CC4)nc2N2CCN=C21` [Example 15, 6-(2,6-Dimethylphenyl)-2-((2-methyl-1,2,3,4-tetrahydroisoquinolin-7-yl)amino)-8,9-dihydroimidazo[1,2-a]pyrimido[5,4-e]pyrimidin-5(6H)-one], the IC50 in experiment [1] is 966 nM; in experiment [2], 1730 nM. For the same compound, the “Inh. (%) of Wee1 kinase enzyme activity” value in experiment [3] (C 1 μm compound) turned out to be 89%.
As for `Cc1cccc(C)c1N1C(=O)c2cnc(Nc3ccc4c(c3)CN(C)CC4(C)C)nc2N2CCN=C21` [Example 16, 6-(2,6-Dimethylphenyl)-2-((2,4,4-trimethyl-1,2,3,4-tetrahydroisoquinolin-7-yl)amino)-8,9-dihydroimidazo[1,2-a]pyrimido[5,4-e]pyrimidin-5(6H)-one], the IC50 amounted to 617 nM in experiment [1] and 4760 nM in experiment [2]. In addition, the “Inh. (%) of Wee1 kinase enzyme activity” value in experiment [3] (C 0.01 μm compound) was determined as 15%; in experiment [3] (C 0.1 μm compound) it was 59%; in experiment [3] (C 1 μm compound), 98%.
For `Cc1cccc(C)c1N1C(=O)c2cnc(Nc3ccc4c(c3)CN(C)CC43CC3)nc2N2CCN=C21` [Example 17, 6-(2,6-Dimethylphenyl)-2-((2′-methyl-2′,3′-dihydro-1′H-spiro[cyclopropane-1,4′-isoquinolin]-7′-yl)amino)-8,9-dihydroimidazo[1,2-a]pyrimido[5,4-e]pyrimidin-5(6H)-one], the figures for the IC50 in experiment [1] and in experiment [2] were 447 nM and 290 nM, respectively. In addition, the “Inh. (%) of Wee1 kinase enzyme activity” value in experiment [3] (C 1 μm compound) came out at 87%.
Consider `CC(C)N1C(=O)c2cnc(Nc3ccc(N4CCN(C)CC4)cc3)nc2N2CCN=C21` [Example 18, 6-Isopropyl-2-((4-(4-methylpiperazin-1-yl)phenyl)amino)-8,9-dihydroimidazo[1,2-a]pyrimido[5,4-e]pyrimidin-5(6H)-one], for which the IC50 in experiment [1] is over 10000 nM; in experiment [2] it was over 1000 nM. In experiment [3] (C 1 μm compound), the “Inh. (%) of Wee1 kinase enzyme activity” value is listed as 14%.
As for `CN1CCN(c2ccc(Nc3ncc4c(n3)N3CCN=C3N(C(C)(C)C)C4=O)cc2)CC1` [Example 19, 6-(Tert-butyl)-2-((4-(4-methylpiperazin-1-yl)phenyl)amino)-8,9-dihydroimidazo[1,2-a]pyrimido[5,4-e]pyrimidin-5(6H)-one], the values for the half-maximal inhibitory concentration (IC50) in experiment [1] and in experiment [2] were over 10000 nM and over 100000 nM, respectively. In addition, the “Inh. (%) of Wee1 kinase enzyme activity” value in experiment [3] (C 1 μm compound) is recorded as 7%.
For `CN1CCN(c2ccc(Nc3ncc4c(n3)N3CCN=C3N(C3CC3)C4=O)cc2)CC1` [Example 20, 6-Cyclopropyl-2-((4-(4-methylpiperazin-1-yl)phenyl)amino)-8,9-dihydroimidazo[1,2-a]pyrimido[5,4-e]pyrimidin-5(6H)-one], in that order: over 10000 nM, over 100000 nM and 9%.
The like results for `CN1CCN(c2ccc(Nc3ncc4c(n3)N3CCN=C3N(C3CCCCC3)C4=O)cc2)CC1` [Example 21, 6-Cyclohexyl-2-((4-(4-methylpiperazin-1-yl)phenyl)amino)-8,9-dihydroimidazo[1,2-a]pyrimido[5,4-e]pyrimidin-5(6H)-one] were, in that order, 3300 nM, 2130 nM and 9%.
